The text below walks through data of US9057727B2, “Screening methods using G-protein coupled receptors and related compositions” (The General Hospital Corporation, priority 2007, dated 2015).

For orientation: IC50 means the point on the concentration scale where inhibition reaches its midpoint.

The target of test [1] is T1, ROS 17/2.8 cells (endogenous rat PTHR) (Rattus norvegicus, UniProt P25961).
T1 construct: the rat osteoblastic cell line ROS17/2.8, which endogenously expresses the rat PTHR; endogenous in cells; host or cells: ROS 17/2.8 rat osteosarcoma cells (membranes or intact cells)
T1 sequence (P25961 27-591): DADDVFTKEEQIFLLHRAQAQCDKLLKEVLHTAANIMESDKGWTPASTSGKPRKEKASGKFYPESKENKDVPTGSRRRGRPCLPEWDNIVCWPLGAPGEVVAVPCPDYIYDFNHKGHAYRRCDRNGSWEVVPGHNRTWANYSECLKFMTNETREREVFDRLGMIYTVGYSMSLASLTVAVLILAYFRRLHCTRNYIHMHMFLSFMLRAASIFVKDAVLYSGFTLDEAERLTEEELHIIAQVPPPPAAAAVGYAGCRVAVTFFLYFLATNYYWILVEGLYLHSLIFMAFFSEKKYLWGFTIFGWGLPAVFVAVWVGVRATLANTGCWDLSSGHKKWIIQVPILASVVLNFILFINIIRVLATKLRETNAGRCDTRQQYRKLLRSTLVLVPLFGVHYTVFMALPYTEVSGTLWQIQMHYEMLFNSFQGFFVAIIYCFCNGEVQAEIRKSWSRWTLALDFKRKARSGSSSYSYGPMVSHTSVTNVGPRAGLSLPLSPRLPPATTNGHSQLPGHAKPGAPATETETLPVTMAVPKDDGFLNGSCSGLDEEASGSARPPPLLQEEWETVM
The test is described as follows: Delayed cAMP response in ROS 17/2.8 cells. The class given is cell-based. As for the experimental part:
The analogs used were [E^19],Mc-hPTH(1-34)OH (SEQ ID NO:21) and [A^23,E^19],Mc-hPTH(1-34)OH (SEQ ID NO:28) (Mc=Ala^1,3,12,Gln^10,Arg^11,Trp^14, Arg^19).
The data in FIG. 21B are expressed as a percent of the maximum response observed for each ligand, determined by incubating the cells with ligand in the presence of IBMX for 10 minutes (no ligand wash-out). These values were 67±6; 68±3; and 71±1 pmole/well, respectively. The basal (vehicle) cAMP value was 3.7±0.4 pmole/well.
Following treatment of cells with a ligand, the intracellular cAMP levels were measured by radioimmuno assay, as described (Shimizu et al., J. Biol. Chem. 276:49003-49012 (2001)). The capacities of ligands to produce a delayed cAMP response in cells after a brief exposure to the ligand was assessed as follows. […]

Test [2] in a line: Calcemic action in normal rats (blood ionized calcium). The class given is in vivo. As to conditions: for calcemic action (blood ionized calcium), in words: normal rats, i.v. As for the experimental part: Binding to the rat PTHR was also measured in vitro.
Concentration of peptides in stock solution were adjusted by dilution with 25 mmol/L phosphate-citrate buffer/100 mmol/L NaCl/0.05% Tween 80 (pH. 5.0) (PC-buffer). All peptides were allowed to stand on ice immediately before administration.
Female SD-IGS rat at 8 weeks of age (Charles River Japan, Inc.) were measured for their body weight. Blood was collected by tail vein into heparinized capillary tubes and measured for baseline levels of blood ionized calcium and pH using Ca^++/pH analyzer (Model 634/Bayer Medical Ltd.) to give the corrected level of ionized calcium at pH 7.4 for each sample. Rats received intravenous administration of each peptides at a dose of 1 ml/kg. Peptides were administered to groups of 6 rats each respectively. At 1, 2, 4, or 6 hours after administration, blood was collected by tail vein to monitor the time course of corrected blood ionized calcium levels. The time course of changes in corrected ionized calcium levels, compared to vehicle, and are expressed as means+/−standard error.

Test [3] in a line: Serum and urinary calcium and phosphate in TPTX rats. The class given is in vivo. As for the experimental part:
Five-week-old male Crl:CD(SD) rats were obtained from Charles River Laboratories Japan, Inc. (Kanagawa, Japan) and acclimated for 1 week under standard laboratory conditions at 20-26° C. and 35-75% humidity. The rats received free access to tap water and standard rodent chow (CE-2) containing 1.1% calcium, 1.0% phosphate and 250 IU/100 g of vitamin D3 (Clea Japan, Inc., Shizuoka, Japan).
Thyroparathyroidectomy (TPTX) was performed on six-week-old rats. TPTX rats were selected for use based on serum ionized calcium (iCa) levels (<1.0 mM) in samples taken from tail vein bleeding at 24 hours or […] after the operation using the electrode method. The TPTX rats were divided into six groups of five animals based on iCa levels at 48 hours after the operation. TPTX-vehicle group intravenously received the vehicle alone (10 mM acetic acid solution) at a dose of 1 ml/kg body weight administered to the tail vein.
Blood was obtained from the tail vein for detecting iCa at 1, 2, 4, 6, and 24 hours after each injection. Ionized calcium levels were determined by the electrode method using an autoanalyzer (M-634, Chiba Corning Diagnostics Co. Ltd., Tokyo, Japan).
We also studied the effects of the M-PTH(1-14)/PTHrP(15-36) hybrid peptide (SP-PTH) on serum and urinary calcium and phosphate.

Test [4] concerns the target T2, hPTH1R (R0 form of the human PTH receptor) (Homo sapiens, UniProt Q03431).
T2 construct: expressed in transfected cells; host or cells: COS-7, transient (Fugene-6)
Description: R0 memb: hPTH1R*PTH( 1-34)+GTPgS.

Test [5] addresses hPTH1R (RG form of the human PTH receptor). Description: RG memb: hPTH1R+dnGS *M-PTH(1-15).
The target in test [6] is T3, human PTHR, G protein-coupled conformation (RG) (Homo sapiens, UniProt Q03431).
T3 construct: expressed in transfected cells; host or cells: COS-7, transient (Fugene-6); membranes
T3 sequence (Q03431 27-593): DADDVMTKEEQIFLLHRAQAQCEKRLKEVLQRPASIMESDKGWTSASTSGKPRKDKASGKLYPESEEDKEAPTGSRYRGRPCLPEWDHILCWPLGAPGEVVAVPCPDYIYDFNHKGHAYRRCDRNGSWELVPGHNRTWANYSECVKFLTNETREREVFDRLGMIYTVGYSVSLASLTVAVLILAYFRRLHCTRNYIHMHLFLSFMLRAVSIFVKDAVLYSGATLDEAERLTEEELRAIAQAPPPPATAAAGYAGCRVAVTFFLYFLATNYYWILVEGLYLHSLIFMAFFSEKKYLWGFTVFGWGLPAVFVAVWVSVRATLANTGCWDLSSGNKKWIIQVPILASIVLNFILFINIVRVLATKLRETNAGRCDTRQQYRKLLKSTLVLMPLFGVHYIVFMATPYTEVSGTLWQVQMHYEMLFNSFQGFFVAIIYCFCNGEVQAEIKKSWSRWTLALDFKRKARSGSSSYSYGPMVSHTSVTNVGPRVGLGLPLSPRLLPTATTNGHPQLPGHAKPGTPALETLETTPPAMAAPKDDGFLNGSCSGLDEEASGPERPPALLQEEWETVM
The test is described as follows: Competition binding to RG conformation of hPTHR (COS-7 membranes, GαsND, 125I-[Aib1,3,M]PTH(1-15) tracer). The settings on record: Table 5; read-out: IC50 RG, ^125I-PTH(1-15) + GsND.

The target of test [7] is T4, human PTHR, G protein-uncoupled conformation (R^0) (Homo sapiens, UniProt Q03431).
T4 construct: expressed in transfected cells; host or cells: COS-7, transient (Fugene-6)
T4 sequence (Q03431 27-593): T3 sequence (Q03431 27-593)
The test is described as follows: Competition binding to R0 conformation of hPTHR (COS-7 membranes, GTPγS, 125I-PTH(1-34) tracer). The method in brief:
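Bound versus free radioligand was separated by vacuum filtration after 90 min incubation of COS-7 hPTHR membranes (20-100 μg/mL) with tracer and competing peptides. Non-specific binding came from a saturating unlabeled analog.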

Test [8] relates to PTHR-CFPIC3/YFPCT (PTHR-cam). Description: FRET analysis of ligand binding/receptor activation in HEK-293 cells. The class given is cell-based, human.
Description: HEK-293 cells stably transfected with a PTHR construct (PTHR-cam) containing cyan fluorescent protein (CFP) in the third intracellular loop and yellow fluorescent protein (YFP) in the carboxy-terminal tail, were used to assess the kinetics of ligand binding to, and dissociation from the PTHR. With PTHR-cam, excitation of the CFP with ultraviolet light (λexc=436 nm) produces an intramolecular FRET to the YFP, which is observable as an increase in light emission from YFP (λemm=535 nm) and a decrease in light emission from CFP λemm=480 nm). This FRET signal occurs in the ground-state receptor and decreases upon agonist binding. […] Data are from a single experiment, and identical results were obtained in at least three others.
The approach used exploits an intramolecular FRET signal that occurs in a human PTHR construct, PTHR-CFPIC3/YFPCT (formerly called PTHR-cam). This construct contains cyan-fluorescent protein (CFP) in the third intracellular loop and yellow-fluorescent protein (YFP) in the carboxy-terminal tail. A FRET signal is produced by PTHR-CFPIC3/YFPCT in the basal state, and this signal diminishes upon agonist binding, likely due to conformational change that occurs upon activation.
HEK-293 cells stably expressing HEK-PTHR-CFPIC3/YFPCT (previously called HEK-PTHR-Cam cells (Vilardaga et al., Nat. Biotechnol. 21:807-812 (2003)) were grown on glass coverslips and processed for FRET analysis as described. With these cells, excitation of the CFP (donor) in PTHR-CFPIC3/YFPCT with ultraviolet light (λmax.ex.=436 nm; λmax.em.=480 nm) produces an intramolecular FRET to the YFP (acceptor), resulting in emission from that YFP (λmax.ex.=480 nm, λmax.em.=535 nm). This FRET response is observable as a decrease in intensity of CFP light emission at 480 nm, and an increase in intensity of YFP light emission at 535 nm. The FRET signal is produced by PTHR-CFPIC3/YFPCT in the ground-state receptor and decreases upon binding of an agonist. […] Fluorescence was monitored using a Zeiss inverted microscope equipped with a 100× objective and a dual emission photometric system (Til Photonics), coupled to an avalanche photodiode detection system and an analog-digital converter (Axon Instruments). The FRET signal detected upon excitation at 436 nm was calculated as the normalized FRET ratio: FYFP(535 nm)/FCFP(480 nm) where FYFP(535 nm) is the emission at 535 nm, corrected for spillover of the CFP signal into the YFP channel, and FCFP(480 nm) is the emission at 480 nm, corrected for spillover (minimal) of the YFP emission into the CFP channel. Changes in fluorescence emissions due to photo-bleaching were subtracted.
The target of the next test is T5, hPTHR (Homo sapiens, UniProt Q03431).
T5 sequence (Q03431 27-593): T3 sequence (Q03431 27-593)
Description: Delayed cAMP response after ligand wash-out in HKRK-B64 cells. The class given is cell-based. On the set-up: expressed in transfected cells. As to conditions: HKRK-B64, at two hours (so in the source); read-out: cAMP response after wash-out, % of maximum response.

Where two headings read alike, the source gives them in different places. Square brackets hold non-standard residues; d marks the D form. Peptide text beside a SMILES is read from it. hArg = N=C(N)NCCCC[C@H](N)C(=O)O; Nle = CCCC[C@H](N)C(=O)O; Aib = CC(C)(N)C(=O)O

Turning to `CC[C@H](C)[C@H](NC(=O)[C@H](CCC(=O)O)NC(=O)[C@H](C)NC(=O)[C@@H](NC(=O)[C@H](Cc1c[nH]cn1)NC(=O)[C@@H](NC(=O)[C@H](CCC(=O)O)NC(=O)[C@H](C)NC(=O)[C@@H](NC(=O)[C@H](CC(C)C)NC(=O)[C@H](Cc1c[nH]cn1)NC(=O)[C@H](Cc1c[nH]cn1)NC(=O)[C@H](CC(C)C)NC(=O)[C@H](Cc1ccccc1)NC(=O)[C@H](Cc1ccccc1)NC(=O)[C@H](CCCNC(=N)N)NC(=O)[C@H](CCCNC(=N)N)NC(=O)[C@H](CCCNC(=N)N)NC(=O)[C@H](CC(C)C)NC(=O)[C@H](CC(=O)O)NC(=O)[C@H](CCC(N)=O)NC(=O)[C@@H](NC(=O)[C@H](Cc1c[nH]c2ccccc12)NC(=O)[C@H](CCCCN)NC(=O)[C@H](C)NC(=O)[C@H](CCCNC(=N)N)NC(=O)[C@H](CCC(N)=O)NC(=O)[C@H](Cc1c[nH]cn1)NC(=O)[C@H](CCSC)NC(=O)[C@H](CC(C)C)NC(=O)[C@H](CCC(N)=O)NC(=O)[C@@H](NC(=O)[C@H](CCC(=O)O)NC(=O)[C@H](C)NC(=O)[C@@H](NC(=O)[C@H](C)N)C(C)C)[C@@H](C)CC)[C@@H](C)CC)[C@@H](C)CC)[C@@H](C)CC)[C@@H](C)O)C(=O)O` [Mc-PTH(1-14)/PTHrP(15-36)] (H-AVAEIQLMHQRAKWIQDLRRRFFLHHLIAEIHTAEI-OH), the “duration of cAMP signaling, in words” value in test [1] is “prolonged cAMP signaling”. Moreover, the “calcemic action compared with control peptides, in words” value in test [2] (normal and TPTX rats) is on record as “higher calcemic actions than did PTH(1-34)”. Moreover, the “calcemic action (blood ionized calcium), in words” value in test [2] is “Prolonged calcemic effects”. In test [3], the “duration of calcemic / sCa and sPi effect, in words” value is “prolonged calcemic effects”. Also, in [3] (listed as SP-PTH), the “duration of calcemic / sCa and sPi effect, in words” value is reported as “maintained for 24 hrs”. In test [3] (single i.v. 1.25 nmol/kg), the “serum calcium (sCa) and serum phosphorus (sPi), in words” value was “increased sCa and decreased sPi to normal levels within 6 hrs”; the “urinary calcium 0-6 hours, in words” value was “decreased urinary calcium”; the “urinary phosphate 0-6 hours, in words” value is given as “increased urinary phosphate level”. This compound also showed an IC50 in test [4] of 2.7 nM. This compound also yielded an IC50 in [5] of 0.67 nM.

Regarding `CCCC[C@H](NC(=O)[C@H](CC(C)C)NC(=O)[C@H](CCC(N)=O)NC(=O)[C@@H](NC(=O)[C@H](CCC(=O)O)NC(=O)C(C)(C)NC(=O)[C@@H](NC(=O)C(C)(C)N)C(C)C)[C@@H](C)CC)C(=O)N[C@@H](Cc1c[nH]cn1)C(=O)N[C@@H](CCC(N)=O)C(=O)N[C@@H](CCCCNC(=N)N)C(=O)N[C@@H](C)C(=O)N[C@@H](CCCCN)C(=O)N[C@@H](Cc1c[nH]c2ccccc12)C(=O)N[C@@H](Cc1ccc(O)cc1)C(N)=O` [[Aib^1,3,M]rPTH(1-15)NH2, [Aib^1,3,Nle^8,Gln^10,homoarginine^11,Ala^12,Trp^14,Tyr^15]rPTH(1-15)NH2, reference compound] (H-[Aib]V[Aib]EIQL[Nle]HQ[hArg]AKWY-NH2; N-terminus assumed), the IC50 in [6] stood at 0.74 ± 0.18 nM. Besides, the “R0:RG” value in test [7] (Table 5, fold weaker affinity for R0 than RG) is 1,397. Further, the “FRET signal after exchange to ligand-free buffer, in words” value in test [8] is “began to decay immediately upon exchange of the buffer to a ligand-free one”. For the same compound, on hPTHR, the Emax amounted to 23%.

Take “AVAEIQLMHQRAKWLNSMERVEALRKKLQDVHNF [[A^23,E^19],Mc-hPTH(1-34)OH]”: the “fold reduction of binding affinity for R^0 by Trp^23→Ala substitution” value in [7] (versus [E^19,Mc]PTH(1-34)) stood at 10 fold. The “duration of cAMP signaling, in words” value in test [1] is listed as “reduced duration of cAMP signaling in cells”. In addition, the “calcemic action (blood ionized calcium), in words” value in test [2] is recorded as “reduced the hypercalcemic effect”.
